{"source": "ChEMBL document CHEMBL1156502", "about": "“Stabilized immune modulatory RNA compounds as agonists of Toll-like receptors 7 and 8” (Proc Natl Acad Sci U S A, 2007)", "key": {"Mus musculus [1]": {"system": "Mus musculus", "test": "Induction of IL12 secretion in C57BL/6 mouse plasma at 100 mg/kg, sc by Luminex Multiplex assay", "assay_type": "functional, organism-based", "parameters": "dose 100 mg/kg"}, "Cynomolgus monkey [2]": {"system": "Cynomolgus monkey", "test": "Increase in CD69 expression on CD14+ monocytes in cynomolgus monkey at 5 mg/kg, sc after 24 hrs by flow cytometry relative to control", "assay_type": "functional, organism-based", "parameters": "dose 5 mg/kg", "conditions": "Macaca fascicularis"}, "Mus musculus [3]": {"system": "Mus musculus", "test": "Induction of IP10 secretion in C57BL/6 mouse plasma at 100 mg/kg, sc by Luminex Multiplex assay", "assay_type": "functional, organism-based", "parameters": "dose 100 mg/kg"}, "[4]": {"molecular_target": "T1, Toll-like receptor 7 (Homo sapiens) (UniProt Q9NYK1)", "T1 sequence (whole entry)": "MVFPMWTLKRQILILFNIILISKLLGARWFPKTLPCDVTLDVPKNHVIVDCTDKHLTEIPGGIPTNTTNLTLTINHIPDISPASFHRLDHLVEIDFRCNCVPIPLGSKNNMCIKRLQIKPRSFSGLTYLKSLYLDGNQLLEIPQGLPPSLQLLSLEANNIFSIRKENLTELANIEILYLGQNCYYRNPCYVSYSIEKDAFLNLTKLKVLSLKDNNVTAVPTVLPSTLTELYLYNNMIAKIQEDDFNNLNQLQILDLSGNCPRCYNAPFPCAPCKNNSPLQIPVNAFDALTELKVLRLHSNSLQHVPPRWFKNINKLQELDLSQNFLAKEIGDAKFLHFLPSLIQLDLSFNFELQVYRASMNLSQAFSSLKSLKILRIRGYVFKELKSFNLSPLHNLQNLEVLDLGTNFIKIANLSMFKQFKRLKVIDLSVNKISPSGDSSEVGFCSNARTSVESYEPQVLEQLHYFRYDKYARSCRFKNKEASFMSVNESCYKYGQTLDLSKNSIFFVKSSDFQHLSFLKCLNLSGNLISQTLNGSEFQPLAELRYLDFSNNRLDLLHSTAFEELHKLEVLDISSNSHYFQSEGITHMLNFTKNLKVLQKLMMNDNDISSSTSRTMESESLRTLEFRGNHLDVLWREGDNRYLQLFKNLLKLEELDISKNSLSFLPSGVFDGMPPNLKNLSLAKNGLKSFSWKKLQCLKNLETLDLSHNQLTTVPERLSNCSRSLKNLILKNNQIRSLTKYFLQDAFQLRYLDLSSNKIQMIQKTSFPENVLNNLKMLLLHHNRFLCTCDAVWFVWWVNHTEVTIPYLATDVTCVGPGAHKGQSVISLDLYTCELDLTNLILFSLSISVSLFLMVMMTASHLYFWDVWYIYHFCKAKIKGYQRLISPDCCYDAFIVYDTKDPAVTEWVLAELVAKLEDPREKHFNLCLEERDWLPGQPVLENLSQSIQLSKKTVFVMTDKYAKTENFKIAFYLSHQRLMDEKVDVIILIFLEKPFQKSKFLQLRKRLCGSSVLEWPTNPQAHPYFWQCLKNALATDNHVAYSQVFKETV", "test": "Activation of human TLR7 expressed in HEK293 cells assessed as increase in NF-kappaB activation at 100 ug/ml by SEAP assay", "assay_type": "cell-based"}, "[5]": {"molecular_target": "T2, Toll-like receptor 8 (Homo sapiens) (UniProt Q9NR97)", "T2 sequence (whole entry)": "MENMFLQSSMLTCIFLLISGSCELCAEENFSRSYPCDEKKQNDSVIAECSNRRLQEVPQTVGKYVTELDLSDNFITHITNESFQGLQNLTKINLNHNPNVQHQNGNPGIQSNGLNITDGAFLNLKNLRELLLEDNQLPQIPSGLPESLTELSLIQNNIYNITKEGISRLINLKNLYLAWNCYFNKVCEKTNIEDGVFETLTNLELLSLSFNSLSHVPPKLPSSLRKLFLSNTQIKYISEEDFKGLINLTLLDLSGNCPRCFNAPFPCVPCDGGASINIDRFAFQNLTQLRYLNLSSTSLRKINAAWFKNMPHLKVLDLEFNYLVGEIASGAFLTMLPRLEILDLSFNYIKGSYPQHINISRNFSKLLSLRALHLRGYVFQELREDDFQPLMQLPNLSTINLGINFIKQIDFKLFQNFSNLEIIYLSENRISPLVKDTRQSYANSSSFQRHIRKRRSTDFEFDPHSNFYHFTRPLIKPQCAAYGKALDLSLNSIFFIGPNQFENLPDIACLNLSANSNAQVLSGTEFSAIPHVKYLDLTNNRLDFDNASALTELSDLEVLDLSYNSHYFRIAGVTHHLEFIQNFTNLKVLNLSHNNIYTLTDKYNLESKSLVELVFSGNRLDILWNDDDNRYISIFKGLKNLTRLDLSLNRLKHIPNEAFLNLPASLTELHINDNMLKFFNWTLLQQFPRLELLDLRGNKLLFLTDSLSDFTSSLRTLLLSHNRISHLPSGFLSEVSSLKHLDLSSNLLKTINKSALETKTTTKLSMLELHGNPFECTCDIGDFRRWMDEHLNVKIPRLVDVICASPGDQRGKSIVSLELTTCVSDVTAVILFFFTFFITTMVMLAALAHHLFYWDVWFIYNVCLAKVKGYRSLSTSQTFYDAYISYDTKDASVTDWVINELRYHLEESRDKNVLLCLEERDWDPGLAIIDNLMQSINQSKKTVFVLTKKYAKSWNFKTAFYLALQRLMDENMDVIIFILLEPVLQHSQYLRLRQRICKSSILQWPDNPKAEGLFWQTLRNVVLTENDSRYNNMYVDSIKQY", "test": "Activation of human TLR8 expressed in HEK293 cells assessed as increase in NF-kappaB activation at 100 ug/ml by SEAP assay", "assay_type": "cell-based"}, "Mus musculus [6]": {"system": "Mus musculus", "test": "Induction of chemokine secretion in C57BL/6 mouse plasma at 100 mg/kg, sc by Luminex Multiplex assay", "assay_type": "functional, organism-based", "parameters": "dose 100 mg/kg"}, "Mus musculus [7]": {"system": "Mus musculus", "test": "Induction of cytokine secretion in C57BL/6 mouse plasma at 100 mg/kg, sc by Luminex Multiplex assay", "assay_type": "functional, organism-based", "parameters": "dose 100 mg/kg"}, "[8]": {"test": "Stability in 1% human serum assessed as full length product after 10 mins", "assay_type": "ADME, cell-free", "conditions": "read-out: Stability"}, "Dendritic cell": {"system": "Dendritic cell", "test": "Induction of IFNalpha secretion in human plasmacytoid dendritic cells at 200 ug/ml after 24 hrs by Luminex Multiplex assay", "assay_type": "functional"}, "Cynomolgus monkey [9]": {"system": "Cynomolgus monkey", "test": "Induction of immune response in cynomolgus monkey assessed as increase in number of peripheral blood monocytes at 5 mg/kg, sc within 24 hrs", "assay_type": "functional, organism-based", "parameters": "dose 5 mg/kg", "conditions": "Macaca fascicularis"}, "Mus musculus [10]": {"system": "Mus musculus", "test": "Induction of IL10 secretion in C57BL/6 mouse plasma at 100 mg/kg, sc by Luminex Multiplex assay", "assay_type": "functional, organism-based", "parameters": "dose 100 mg/kg"}, "Cynomolgus monkey [11]": {"system": "Cynomolgus monkey", "test": "Induction of immune response in cynomolgus monkey assessed as increase in number of peripheral blood neutrophils at 5 mg/kg, sc within 24 hrs", "assay_type": "functional, organism-based", "parameters": "dose 5 mg/kg", "conditions": "Macaca fascicularis"}, "Cynomolgus monkey [12]": {"system": "Cynomolgus monkey", "test": "Elevation of IP10 in cynomolgus monkey plasma at 5 mg/kg, sc after 24 hrs", "assay_type": "functional, organism-based", "parameters": "dose 5 mg/kg", "conditions": "Macaca fascicularis"}, "spleen [13]": {"system": "spleen", "test": "Induction of chemokine secretion in C57BL/6 mouse spleen cells 100 ug/ml after 24 hrs by Luminex Multiplex assay", "assay_type": "functional, cell-based"}, "Cynomolgus monkey [14]": {"system": "Cynomolgus monkey", "test": "Elevation of IFNalpha in cynomolgus monkey plasma at 5 mg/kg, sc after 24 hrs", "assay_type": "functional, organism-based", "parameters": "dose 5 mg/kg", "conditions": "Macaca fascicularis"}, "Mus musculus [15]": {"system": "Mus musculus", "test": "Induction of MCP1 secretion in C57BL/6 mouse plasma at 100 mg/kg, sc by Luminex Multiplex assay", "assay_type": "functional, organism-based", "parameters": "dose 100 mg/kg"}, "Mus musculus [16]": {"system": "Mus musculus", "test": "Induction of IFN-gamma-induced monoamine secretion in C57BL/6 mouse plasma at 100 mg/kg, sc by Luminex Multiplex assay", "assay_type": "functional, organism-based", "parameters": "dose 100 mg/kg"}, "Cynomolgus monkey [17]": {"system": "Cynomolgus monkey", "test": "Increase in CD69 expression on CD3+ lymphocytes in cynomolgus monkey at 5 mg/kg, sc after 24 hrs by flow cytometry relative to control", "assay_type": "functional, organism-based", "parameters": "dose 5 mg/kg", "conditions": "Macaca fascicularis"}, "spleen [18]": {"system": "spleen", "test": "Induction of cytokine secretion in C57BL/6 mouse spleen cells at 100 ug/ml after 24 hrs by Luminex Multiplex assay", "assay_type": "functional, cell-based"}, "Cynomolgus monkey [19]": {"system": "Cynomolgus monkey", "test": "Increase in CD69 expression on CD16+ NK cells in cynomolgus monkey at 5 mg/kg, sc after 24 hrs by flow cytometry relative to control", "assay_type": "functional, organism-based", "parameters": "dose 5 mg/kg", "conditions": "Macaca fascicularis"}, "Mus musculus [20]": {"system": "Mus musculus", "test": "Induction of IL12 secretion in sc dosed C57BL/6 mouse serum after 2 hrs by ELISA", "assay_type": "functional, organism-based"}}, "note": "Activity calls are given as the source filed them. The calls are words filed in the database; no cut-off is given here.", "data": [{"smiles": "Nc1ccn([C@@H]2O[C@H](COP(O)(=S)O[C@H]3[C@@H](O)[C@H](n4ccc(=O)[nH]c4=O)O[C@@H]3COP(O)(=S)O[C@H]3[C@@H](O)[C@H](n4ccc(=O)[nH]c4=O)O[C@@H]3COP(O)(=S)O[C@H]3[C@@H](O)[C@H](n4ccc(N)nc4=O)O[C@@H]3COP(O)(=S)O[C@H]3[C@@H](O)[C@H](n4ccc5c(=O)[nH]c(N)nc54)O[C@@H]3COP(O)(=S)O[C@H]3[C@@H](O)[C@H](n4ccc(=O)[nH]c4=O)O[C@@H]3COP(O)(=S)O[C@H]3[C@@H](O)[C@H](n4ccc(N)nc4=O)O[C@@H]3COP(O)(=S)O[C@H]3[C@@H](O)[C@H](n4ccc5c(=O)[nH]c(N)nc54)O[C@@H]3COP(O)(=S)O[C@H]3[C@@H](O)[C@H](n4ccc(=O)[nH]c4=O)O[C@@H]3CO)[C@@H](OP(O)(=S)OC[C@H]3O[C@@H](n4ccc(=O)[nH]c4=O)[C@H](O)[C@@H]3OP(O)(=S)OC[C@H]3O[C@@H](n4ccc5c(=O)[nH]c(N)nc54)[C@H](O)[C@@H]3OP(O)(=S)OCC(O)COP(O)(=S)O[C@H]3[C@@H](O)[C@H](n4ccc5c(=O)[nH]c(N)nc54)O[C@@H]3COP(O)(=S)O[C@H]3[C@@H](O)[C@H](n4ccc(=O)[nH]c4=O)O[C@@H]3COP(O)(=S)O[C@H]3[C@@H](O)[C@H](n4ccc(N)nc4=O)O[C@@H]3COP(O)(=S)O[C@H]3[C@@H](O)[C@H](n4ccc(=O)[nH]c4=O)O[C@@H]3COP(O)(=S)O[C@H]3[C@@H](O)[C@H](n4ccc(=O)[nH]c4=O)O[C@@H]3COP(O)(=S)O[C@H]3[C@@H](O)[C@H](n4ccc(N)nc4=O)O[C@@H]3COP(O)(=S)O[C@H]3[C@@H](O)[C@H](n4ccc5c(=O)[nH]c(N)nc54)O[C@@H]3COP(O)(=S)O[C@H]3[C@@H](O)[C@H](n4ccc(=O)[nH]c4=O)O[C@@H]3COP(O)(=S)O[C@H]3[C@@H](O)[C@H](n4ccc(N)nc4=O)O[C@@H]3COP(O)(=S)O[C@H]3[C@@H](O)[C@H](n4ccc5c(=O)[nH]c(N)nc54)O[C@@H]3COP(O)(=S)O[C@H]3[C@@H](O)[C@H](n4ccc(=O)[nH]c4=O)O[C@@H]3CO)[C@H]2O)c(=O)n1", "note": "(stereo partly specified)", "values": [{"measurement": "Activity", "setting": "Mus musculus [1]", "value": "Active"}, {"measurement": "Activity", "setting": "Cynomolgus monkey [2]", "value": "Active"}, {"measurement": "Activity", "setting": "Mus musculus [3]", "value": "Active"}, {"measurement": "Activity", "setting": "[4]", "value": "Active"}, {"measurement": "Activity", "setting": "[5]", "value": "Active"}, {"measurement": "Activity", "setting": "Mus musculus [6]", "value": "inactive"}, {"measurement": "Activity", "setting": "Mus musculus [7]", "value": "inactive"}, {"measurement": "remaining at 10 min", "setting": "[8]", "value": 57, "unit": "%"}, {"measurement": "Activity", "setting": "Dendritic cell", "value": "Active"}, {"measurement": "Activity", "setting": "Cynomolgus monkey [9]", "value": "Active"}, {"measurement": "Activity", "setting": "Mus musculus [10]", "value": "Active"}, {"measurement": "Activity", "setting": "Cynomolgus monkey [11]", "value": "Active"}, {"measurement": "Activity", "setting": "Cynomolgus monkey [12]", "value": "Active"}, {"measurement": "Activity", "setting": "spleen [13]", "value": "Dose-dependent effect"}, {"measurement": "Activity", "setting": "Cynomolgus monkey [14]", "value": "Active"}, {"measurement": "Activity", "setting": "Mus musculus [15]", "value": "Active"}, {"measurement": "Activity", "setting": "Mus musculus [16]", "value": "Active"}, {"measurement": "Activity", "setting": "Cynomolgus monkey [17]", "value": "Active"}, {"measurement": "Activity", "setting": "spleen [18]", "value": "Dose-dependent effect"}, {"measurement": "Activity", "setting": "Cynomolgus monkey [19]", "value": "Active"}, {"measurement": "Activity", "setting": "Mus musculus [20]", "value": "Dose-dependent effect"}]}]}
